Data reported in patent US20210353579A1, “HIGH PENETRATION COMPOSITIONS AND USES THEREOF” (Techfields Pharma Co., Ltd., priority 2006, published 2021).

Key:
Chinese white rabbits = test: Autologous blood clot pulmonary embolization, thrombus propagation; type: in vivo, rabbit; conditions: 20 mg/kg topically, after 2 days
Protocol: Eighteen Chinese White rabbits weighing between 3.0 and 3.5 kg (aged 6-7 months) were selected and divided into three groups (control, P-1 and […] groups, n=6). One hour before the experiment, thrombi were made by aspirating venous blood (1 ml) into a sterilized bottle to clot. To avoid fragmentation and slow lysis, the autologous blood clots were stabilized in temperature-controlled (70° C.) distilled water for 10 min. After anesthesia, the femoral veins were exposed and distally isolated, and autologous blood clots (0.05 g/kg) were injected through an indwelling catheter (20 GA), which had been placed in the femoral vein isolated earlier. 50% acetone solution of diethylaminoethyl acetylsalicylate.acetylsalicylic acid salt (P-1, in acetone, 20 mg/kg) and diethylaminoethyl acetylsalicylsalicylate. acetylsalicylsalicylic acid salt (P-59, 20 mg/kg) were topically applied to the back of the rabbits. After 2 days, rabbits were euthanized with an excessive intravenous injection of sodium amobarbital (60 mg/kg). The lungs and hearts were isolated to observe whether thrombi were present in the pulmonary arteries. The lungs were immersed in 10% formalin for 24 h. Consecutive transverse sections along the obstructed pulmonary arteries were paraffin-embedded and stained with hematoxylin-eosine. […]

[1] = system: rats (SLAC/GK, type 2 diabetes); test: Blood glucose in type 2 diabetes rats, transdermal; type: in vivo, rat; conditions: diabetic rats (SLAC/GK)
From the text: (§1) HPPs lower blood glucose level in rat models (SLAC/GK, type 2 diabetes, n=7). 50% acetone solution of diethylaminoethyl acetylsalicylate.acetylsalicylic acid salt (P-1, in acetone); 4-acetamidophenyl salicylyldimethylaminobutyrate.HCl (P-6), diethylaminoethyl 5-(2,4-difluorophenyl) acetylsalicylate.5-(2,4-difluorophenyl).acetylsalicylic acid salt (P-8), diethylaminoethyl salicylsalicylate.AcOH (P-9), diethylaminoethyl salicylate.AcOH (P-10), diethylaminoethyl 5-acetamido-acetylsalicylate (P-58), diethylaminoethyl acetylsalicylsalicylate.acetylsalicylsalicylic acid salt (P-59), diethylaminoethyl acetylsalicylsalicylate.acetylsalicylsalicylsalicylic acid salt (P-60) (equal to of 20 mg/kg of NSAIAs) are administered transdermally to the backs (about 1.5 cm^2) of rats (fur was shaved) once per day (at 8 am) for 5 weeks. The blood glucose levels are measured once every 3 days at 3 pm (no fasting) from the second week to the fifth week (Table 24). The blood lipid levels are measured at the end of the fifth week (Table 25).

normal rats [2] = test: Blood glucose in normal rats, transdermal; type: in vivo, rat
From the text: as §1, with “25). […]” for “25).”

normal rats [3] = test: Blood glucose in normal rats, oral with food; type: in vivo, rat
[4] = system: mice (SLAC:NOD-IDDM, type 1 diabetes); test: Blood glucose in type 1 diabetes mice, transdermal; type: in vivo, mouse
From the text: The pro-drugs in this invention lower blood glucose levels in mouse models (SLAC:NOD-IDDM, type 1 diabetes, n=7). 50% acetone solution of diethylaminoethyl acetylsalicylate.acetylsalicylic acid salt (P-1, in acetone); 4-acetamidophenyl salicylyldimethylaminobutyrate.HCl (P-6), diethylaminoethyl 5-(2,4-difluorophenyl) acetylsalicylate.5-(2,4-difluorophenyl) acetylsalicylic acid salt (P-8), diethylaminoethyl salicylsalicylate.AcOH (P-9), diethylaminoethyl salicylate.AcOH (P-10), diethylaminoethyl 5-acetamido-acetylsalicylate (P-58), diethylaminoethyl acetylsalicylsalicylate. acetylsalicylsalicylic acid salt (P-59), diethylaminoethyl acetylsalicylsalicylate. acetylsalicylsalicylsalicylic acid salt (P-60) (equal to of 30 mg/kg of NSAIAs) were administered transdermally to the backs (about 1.5 cm^2) of mice (fur was shaved) once per day (at 8 am) for 7 weeks. The blood glucose levels were measured once every 3 days at 3 pm (no fasting) from the fourth week to the seventh week.

[5] = system: rats (SLAC/GK, type 2 diabetes); test: Blood lipid in type 2 diabetes rats, transdermal; type: in vivo, rat
From the text: as §1

[6] = system: rats (SLAC/GK, type 2 diabetes); test: Blood lipid in type 2 diabetes rats, oral with food; type: in vivo, rat
From the text: (§2) 20% acetone solution of diethylaminoethyl acetylsalicylate.acetylsalicylic acid salt (P-1, in acetone); 4-acetamidophenyl salicylyldimethylaminobutyrate.HCl (P-6), diethylaminoethyl 5-(2,4-difluorophenyl) acetylsalicylate.5-(2,4-difluorophenyl) acetylsalicylic acid salt (P-8), diethylaminoethyl salicylsalicylate.AcOH (P-9), diethylaminoethyl salicylate.AcOH (P-10), diethylaminoethyl 5-acetamido-acetylsalicylate (P-58), diethylaminoethyl acetylsalicylsalicylate. acetylsalicylsalicylic acid salt (P-59), diethylaminoethyl acetylsalicylsalicylate. acetylsalicylsalicylsalicylic acid salt (P-60) (equal to of 20 mg/kg of NSAIAs) were mixed with food and were orally administered to the rats (SLAC/GK, type 2 diabetes, n=7) with food every day for 5 weeks. The blood glucose levels were measured once every 3 days at 3 pm (no fasting) from the second week to the fifth week. The blood lipid levels were measured at the end of the fifth week.

[7] = system: rats (SLAC/GK, type 2 diabetes); test: Blood glucose in type 2 diabetes rats, oral with food; type: in vivo, rat
From the text: as §2

C57/BL6 mice, MPTP [8] = test: MPTP Parkinson's disease mice: DA, NA, 5-HT in the striatum; type: in vivo, mouse
From the text: (§3) The mice were divided into 2 groups.

C57/BL6 mice, MPTP [9] = test: MPTP Parkinson's disease mice: GSH and MDA in the substantia nigra; type: in vivo, mouse; conditions: MPTP + 30 mg/kg transdermally 14 days
From the text: as §3

C57/BL6 mice, MPTP [10] = test: MPTP Parkinson's disease mice: GABA and Glu in substantia nigra and striatum
Protocol: Group A mice were i.p. injected 0.4% sodium carboxymethylcellulos (15 ml/kg per day) for 7 days. Group B and C mice were i.p. injected N-methyl-4-phenyl-1,2,3,6-tetrahydropyridine (MPTP, 30 mg/kg per day) for 7 days. The mice were divided into 2 groups. […] All mice were killed after the last treatment and the brain tissues were quickly frozen at −80° C. […] The contents of GABA and Glu in the striatum and SN were shown by high performance amino acid auto-analyser.

[11] = system: spontaneously hypertensive and stroke prone rats (SLAC/SHRSP); test: Anti-stroke activity, carotid thrombosis by electrical stimulation (treated before operation); type: in vivo, rat; conditions: 100 mg/kg transdermally 2 hour before and 1 hour after operation, then 50 mg/kg twice per day
Protocol: (§4) Thrombosis was induced by electrical stimulation (1 mA for 3 minutes) of the carotid artery in spontaneously hypertensive and stroke prone rats (SLAC/SHRSP) by using a thrombosis formation instrument (YLS-14A, Shandong Academy of Medical Sciences, Shandong, China). The rats (Spragu Dawley, 25 weeks old, 380-450 g) were divided into 3 groups randomly, group A is the control group, groups B and C are aspirinamine-treated group. In group B, 100 mg/kg of aspirinamine citric acid salt (10% in water) was applied to the rats' back skin (˜5 cm^2, fur was cut off) 2 hour before the operation and 1 hour after the operation, then 50 mg/kg of the drug was applied to the back of rats twice per day. In group C, 50 mg/kg of aspirinamine was applied to the back of rats twice per day starting from 24 hours after the operation. The recovery of motor functions of rats was evaluated every day. The operation process is outlined in the Method section in the supporting online materials. […] The HPP of aspirin is the first drug which can reverses paralysis from post-stroke.

[12] = system: spontaneously hypertensive and stroke prone rats (SLAC/SHRSP); test: Alleviation of the effects of strokes (treatment from 24 hours after operation); type: in vivo, rat; conditions: 50 mg/kg twice per day on the back from 24 hours after the operation
Protocol: as §4

[13] = baseline, equal to 20 mg/kg of NSAIAs
[14] = end of the fifth week, equal to 20 mg/kg of NSAIAs once per day
[15] = end of the fifth week, equal to 20 mg/kg of NSAIAs every day
[16] = MPTP mice, 30 mg/kg transdermally to the neck once per day for 14 days
[17] = MPTP mice, 30 mg/kg transdermally once per day for 14 days

CC(=O)Oc1ccccc1C(=O)Oc1ccccc1C(=O)O.CCN(CC)CCOC(=O)c1ccccc1OC(=O)c1ccccc1OC(C)=O [P-59, diethylaminoethyl acetylsalicylsalicylate.acetylsalicylsalicylic acid salt]
lung tissue and vascular walls (thrombus propagation) (Chinese white rabbits): both lung tissue and vascular walls were normal | Blood glucose, Average ([1]; average second to fifth week, no fasting, equal to 20 mg/kg of NSAIAs once per day for 5 weeks): 8.7 ± 1 mmol/L | Blood glucose, Baseline ([1]; baseline, equal to 20 mg/kg of NSAIAs once per day): 16.3 ± 3 mmol/L | Blood glucose, Average (normal rats [2]; normal rats (second Average line of Table 24), average second to fifth week, equal to 20 mg/kg of NSAIAs once per day): 7.3 ± 1 mmol/L | Blood glucose, Baseline (normal rats [2]; normal rats (second Baseline line of Table 24), baseline, equal to 20 mg/kg of NSAIAs): 7.2 ± 1 mmol/L | Blood glucose, Normal rats, Average (normal rats [3]; average second to fifth week, equal to 20 mg/kg of NSAIAs every day): 7.3 ± 1 mmol/L | Blood glucose, Normal rats, Baseline (normal rats [3]; [13]): 7.5 ± 1 mmol/L | Blood glucose, Average ([4]; average fourth to seventh week, no fasting, equal to 30 mg/kg of NSAIAs once per day for 7 weeks): 8.7 ± 1 mmol/L | Blood glucose, Baseline ([4]; baseline, equal to 30 mg/kg of NSAIAs): 24.3 ± 3 mmol/L | Cholesterol (HDL), Baseline [5, 13]: 1.6 ± 0.2 mmol/L | Cholesterol (total), Baseline [5, 13]: 7.6 ± 0.6 mmol/L | Triglycerides, Baseline [5, 13]: 5.6 ± 0.5 mmol/L | Cholesterol (HDL), Average [5, 14]: 1.6 ± 0.2 mmol/L | Cholesterol (total), Average [5, 14]: 5.1 ± 0.3 mmol/L | Triglycerides, Average [5, 14]: 1.9 ± 0.2 mmol/L | Cholesterol (HDL), Baseline [6, 13]: 1.9 ± 0.2 mmol/L | Cholesterol (total), Baseline [6, 13]: 7.7 ± 0.6 mmol/L | Triglycerides, Baseline [6, 13]: 5.4 ± 0.6 mmol/L | Cholesterol (HDL), Average [6, 15]: 1.8 ± 0.2 mmol/L | Cholesterol (total), Average [6, 15]: 5.7 ± 0.3 mmol/L | Triglycerides, Average [6, 15]: 2.7 ± 0.2 mmol/L | Blood glucose, Diabetic rats, Average ([7]; average second to fifth week, no fasting, equal to 20 mg/kg of NSAIAs every day for 5 weeks): 8.6 ± 1 mmol/L | Blood glucose, Diabetic rats, Baseline [7, 13]: 15.3 ± 3 mmol/L

CCN(CC)CCOC(=O)c1ccccc1OC(C)=O.O=C(O)CC(O)(CC(=O)O)C(=O)O [diethylaminoethyl acetylsalicylate.citric acid]
DA, NA, and 5-HT contents in the striatum (C57/BL6 mice, MPTP [8]; 30 mg/kg transdermally, vs MPTP model group, P<0.05): increased | 5-HT concentration in the striatum (C57/BL6 mice, MPTP [8]; [16]): 302 ± 29 | DA concentration in the striatum (C57/BL6 mice, MPTP [8]; [16]): 817 ± 89 μg/g wet tissue | NA concentration in the striatum (C57/BL6 mice, MPTP [8]; [16]): 602 ± 55 | MDA in the substantia nigra (C57/BL6 mice, MPTP [9]; control 13 ± 3, MPTP + water 21 ± 4): 14 ± 4 μmol/g protein | GSH in the substantia nigra (C57/BL6 mice, MPTP [9]; control 152 ± 12, MPTP + water 101 ± 17): 143 ± 13 μg/g protein | MPTP-induced changes of GABA in striatum and SN (C57/BL6 mice, MPTP [10]; 30 mg/kg): reversed | GABA concentration, Striatum (C57/BL6 mice, MPTP [10]; [17]): 4.9 ± 1.6 μmol/g wet tissue | GABA concentration, Substantia nigra (C57/BL6 mice, MPTP [10]; [17]): 4.7 ± 0.5 μmol/g wet tissue | Glu concentration, Striatum (C57/BL6 mice, MPTP [10]; [17]): 26.5 ± 2.7 | Glu concentration, Substantia nigra (C57/BL6 mice, MPTP [10]; [17]): 29.5 ± 2.4 | Stroke-free rats (2 hours) [11]: 8/10 | Stroke-free rats (1 day) [11]: 9/10 | Stroke-free rats (7 days) [11]: 10/10 | Stroke-free rats (3 hrs) ([12]; 3 hrs after operation (before treatment start)): 0/10 | Stroke-free rats (2 day) ([12]; 2 day): 4/10 | Weight Loss (3 days) ([12]; 3 days): −13 +/− 7% | Stroke-free rats (7 day) ([12]; 7 day): 9/10 | Weight Loss (7 days) ([12]; 7 days): −7 +/− 4% | Stroke-free rats (14 days) ([12]; 14 days): 10/10 | Weight Loss (14 days) ([12]; 14 days): −4 +/− 2%
